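Grown in 96-well plates, cells were treated for 48 hours with each compound at five concentrations. Insufficient inhibition: endpoint recorded as highest concentration tested. The concentration for 50% growth inhibition is given as GI50.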 Active and inactive are the calls of the source. Cut-off read from the data, not from the text of the source: active = GI50 up to about 1.1 µM and inactive = higher.
Tests used:
Assay in all cases: NCI tumour cell line growth inhibition, 48 h
786-0 = test system: 786-0
A498 = test system: A498
A549 = test system: A549
ACHN = test system: ACHN
BT-549 = test system: BT-549
CAKI-1 = test system: CAKI-1
CCRF-CEM = test system: CCRF-CEM
COLO 205 = test system: COLO 205
DU-145 = test system: DU-145
EKVX = test system: EKVX
HCC 2998 = test system: HCC 2998
HCT-116 = test system: HCT-116
HCT-15 = test system: HCT-15
HL-60 = test system: HL-60
HOP-62 = test system: HOP-62
HOP-92 = test system: HOP-92
HT-29 = test system: HT-29
Hs-578T = test system: Hs-578T
IGROV-1 = test system: IGROV-1
K562 = test system: K562
KM12 = test system: KM12
LOX IMVI = test system: LOX IMVI
M14 = test system: M14
MCF7 = test system: MCF7
MDA-MB-231 = test system: MDA-MB-231
MDA-MB-435 = test system: MDA-MB-435
MDA-N = test system: MDA-N
MOLT-4 = test system: MOLT-4
Malme-3M = test system: Malme-3M
NCI-H226 = test system: NCI-H226
NCI-H23 = test system: NCI-H23
NCI-H460 = test system: NCI-H460
NCI-H522 = test system: NCI-H522
NCI/ADR-RES = test system: NCI/ADR-RES
OVCAR-3 = test system: OVCAR-3
OVCAR-4 = test system: OVCAR-4
OVCAR-5 = test system: OVCAR-5
OVCAR-8 = test system: OVCAR-8
PC-3 = test system: PC-3
RPMI-8226 = test system: RPMI-8226
RXF 393 = test system: RXF 393
SF-268 = test system: SF-268
SF-295 = test system: SF-295
SF-539 = test system: SF-539
SK-MEL-28 = test system: SK-MEL-28
SK-MEL-2 = test system: SK-MEL-2
SK-MEL-5 = test system: SK-MEL-5
SK-OV-3 = test system: SK-OV-3
SN12C = test system: SN12C
SNB-19 = test system: SNB-19
SNB-75 = test system: SNB-75
SR = test system: SR
SW-620 = test system: SW-620
T47D = test system: T47D
TK-10 = test system: TK-10
U-251 = test system: U-251
UACC-257 = test system: UACC-257
UACC-62 = test system: UACC-62
UO-31 = test system: UO-31

## CC1(c2ccc(Cl)cc2)N=C(NCCO)c2ccccc21 (centres undefined)
786-0
  GI50: 12.5 µM (inactive)
A498
  GI50: 18.6 µM (inactive)
A549
  GI50: 23.7 µM (inactive)
ACHN
  GI50: 29.4 µM (inactive)
BT-549
  GI50: 42 µM (inactive)
CAKI-1
  GI50: > 71 µM (inactive)
CCRF-CEM
  GI50: 2.9 µM (inactive)
COLO 205
  GI50: 13.5 µM (inactive)
DU-145
  GI50: 2.07 µM (inactive)
EKVX
  GI50: > 100 µM (inactive)
HCC 2998
  GI50: 12.2 µM (inactive)
HCT-116
  GI50: 5.37 µM (inactive)
HCT-15
  GI50: 26.9 µM
HL-60
  GI50: 3.23 µM (inactive)
HOP-62
  GI50: 25.1 µM (inactive)
HOP-92
  GI50: 8.53 µM (inactive)
HT-29
  GI50: 5.74 µM (inactive)
Hs-578T
  GI50: 37.8 µM (inactive)
IGROV-1
  GI50: 22.9 µM (inactive)
K562
  GI50: 6.61 µM (inactive)
KM12
  GI50: 15.7 µM (inactive)
LOX IMVI
  GI50: 13.8 µM (inactive)
M14
  GI50: 9.84 µM (inactive)
MCF7
  GI50: 20.7 µM (inactive)
MDA-MB-231
  GI50: 19.1 µM (inactive)
MDA-MB-435
  GI50: 12.2 µM (inactive)
MDA-N
  GI50: 10.7 µM (inactive)
MOLT-4
  GI50: 8.49 µM (inactive)
Malme-3M
  GI50: 17.9 µM (inactive)
NCI-H226
  GI50: 11.1 µM (inactive)
NCI-H23
  GI50: 13.8 µM (inactive)
NCI-H460
  GI50: 13.3 µM (inactive)
NCI-H522
  GI50: 26.4 µM (inactive)
NCI/ADR-RES
  GI50: 99.5 µM (inactive)
OVCAR-3
  GI50: 56.1 µM (inactive)
OVCAR-4
  GI50: 67.9 µM (inactive)
OVCAR-5
  GI50: 19.2 µM (inactive)
OVCAR-8
  GI50: 51.8 µM (inactive)
PC-3
  GI50: 32.7 µM (inactive)
RPMI-8226
  GI50: 2.74 µM (inactive)
RXF 393
  GI50: 16.3 µM (inactive)
SF-268
  GI50: 42.9 µM (inactive)
SF-295
  GI50: 8.36 µM (inactive)
SF-539
  GI50: 2.25 µM (inactive)
SK-MEL-28
  GI50: 9.75 µM (inactive)
SK-MEL-2
  GI50: 18.2 µM (inactive)
SK-MEL-5
  GI50: 14.8 µM (inactive)
SK-OV-3
  GI50: 88.7 µM (inactive)
SN12C
  GI50: 16.9 µM (inactive)
SNB-19
  GI50: 14.7 µM (inactive)
SNB-75
  GI50: 19.5 µM (inactive)
SR
  GI50: 16.4 µM (inactive)
SW-620
  GI50: 10.5 µM (inactive)
T47D
  GI50: 15.9 µM (inactive)
TK-10
  GI50: 41.4 µM (inactive)
U-251
  GI50: 16.9 µM (inactive)
UACC-257
  GI50: 17.1 µM (inactive)
UACC-62
  GI50: 12 µM (inactive)
UO-31
  GI50: 17.8 µM (inactive)

## O=C1OC[C@@H]2[C@@H](O)CCCCCN12
786-0
  GI50: > 10 µM (inactive)
A498
  GI50: > 100 µM (inactive)
A549
  GI50: > 100 µM (inactive)
ACHN
  GI50: > 100 µM (inactive)
BT-549
  GI50: > 100 µM (inactive)
CAKI-1
  GI50: > 100 µM (inactive)
CCRF-CEM
  GI50: > 100 µM (inactive)
COLO 205
  GI50: > 100 µM (inactive)
DU-145
  GI50: > 100 µM (inactive)
EKVX
  GI50: > 100 µM (inactive)
HCC 2998
  GI50: > 100 µM (inactive)
HCT-116
  GI50: > 100 µM (inactive)
HCT-15
  GI50: > 100 µM
HL-60
  GI50: > 100 µM (inactive)
HOP-62
  GI50: > 100 µM (inactive)
HOP-92
  GI50: > 100 µM (inactive)
HT-29
  GI50: > 100 µM (inactive)
Hs-578T
  GI50: > 100 µM (inactive)
IGROV-1
  GI50: > 100 µM (inactive)
K562
  GI50: > 100 µM (inactive)
KM12
  GI50: > 100 µM (inactive)
LOX IMVI
  GI50: > 100 µM (inactive)
MCF7
  GI50: > 100 µM (inactive)
MDA-MB-231
  GI50: > 100 µM (inactive)
MDA-MB-435
  GI50: > 100 µM (inactive)
MDA-N
  GI50: > 100 µM (inactive)
MOLT-4
  GI50: > 100 µM (inactive)
NCI-H226
  GI50: > 100 µM (inactive)
NCI-H460
  GI50: > 100 µM (inactive)
NCI-H522
  GI50: > 100 µM (inactive)
NCI/ADR-RES
  GI50: > 100 µM (inactive)
OVCAR-3
  GI50: > 100 µM (inactive)
OVCAR-4
  GI50: > 100 µM (inactive)
OVCAR-5
  GI50: > 100 µM (inactive)
OVCAR-8
  GI50: > 100 µM (inactive)
PC-3
  GI50: > 100 µM (inactive)
RPMI-8226
  GI50: > 100 µM (inactive)
RXF 393
  GI50: > 100 µM (inactive)
SF-295
  GI50: > 100 µM (inactive)
SF-539
  GI50: > 100 µM (inactive)
SK-MEL-28
  GI50: > 100 µM (inactive)
SK-MEL-2
  GI50: > 100 µM (inactive)
SK-MEL-5
  GI50: > 100 µM (inactive)
SK-OV-3
  GI50: > 100 µM (inactive)
SN12C
  GI50: > 100 µM (inactive)
SNB-19
  GI50: > 100 µM (inactive)
SNB-75
  GI50: > 100 µM (inactive)
SR
  GI50: > 100 µM (inactive)
SW-620
  GI50: > 100 µM (inactive)
T47D
  GI50: > 100 µM (inactive)
TK-10
  GI50: > 100 µM (inactive)
U-251
  GI50: > 100 µM (inactive)
UACC-257
  GI50: > 100 µM (inactive)
UACC-62
  GI50: > 100 µM (inactive)
UO-31
  GI50: > 100 µM (inactive)

## CC(NNC(=O)c1cc[n+]([BH2-]C#N)cc1)c1cccc(F)c1 (centres undefined)
786-0
  GI50: > 100 µM (inactive)
A498
  GI50: > 100 µM (inactive)
A549
  GI50: > 100 µM (inactive)
ACHN
  GI50: > 100 µM (inactive)
BT-549
  GI50: > 100 µM (inactive)
CAKI-1
  GI50: > 100 µM (inactive)
CCRF-CEM
  GI50: > 100 µM (inactive)
COLO 205
  GI50: > 100 µM (inactive)
DU-145
  GI50: > 100 µM (inactive)
EKVX
  GI50: > 100 µM (inactive)
HCC 2998
  GI50: > 100 µM (inactive)
HCT-116
  GI50: > 100 µM (inactive)
HCT-15
  GI50: > 100 µM
HL-60
  GI50: 50.5 µM (inactive)
HOP-92
  GI50: > 100 µM (inactive)
Hs-578T
  GI50: > 100 µM (inactive)
IGROV-1
  GI50: > 100 µM (inactive)
K562
  GI50: > 100 µM (inactive)
KM12
  GI50: > 100 µM (inactive)
LOX IMVI
  GI50: > 100 µM (inactive)
M14
  GI50: > 100 µM (inactive)
MCF7
  GI50: > 100 µM (inactive)
MDA-MB-231
  GI50: > 100 µM (inactive)
MDA-MB-435
  GI50: > 100 µM (inactive)
MDA-N
  GI50: > 100 µM (inactive)
MOLT-4
  GI50: > 100 µM (inactive)
Malme-3M
  GI50: > 100 µM (inactive)
NCI-H226
  GI50: > 100 µM (inactive)
NCI-H460
  GI50: > 100 µM (inactive)
NCI-H522
  GI50: > 100 µM (inactive)
NCI/ADR-RES
  GI50: > 100 µM (inactive)
OVCAR-3
  GI50: > 100 µM (inactive)
OVCAR-4
  GI50: 69.8 µM (inactive)
OVCAR-5
  GI50: > 100 µM (inactive)
OVCAR-8
  GI50: > 100 µM (inactive)
PC-3
  GI50: > 100 µM (inactive)
RPMI-8226
  GI50: > 100 µM (inactive)
RXF 393
  GI50: > 100 µM (inactive)
SF-268
  GI50: > 100 µM (inactive)
SF-295
  GI50: > 100 µM (inactive)
SF-539
  GI50: > 100 µM (inactive)
SK-MEL-28
  GI50: > 100 µM (inactive)
SK-MEL-2
  GI50: > 100 µM (inactive)
SK-MEL-5
  GI50: 94.2 µM (inactive)
SN12C
  GI50: > 100 µM (inactive)
SNB-19
  GI50: > 100 µM (inactive)
SNB-75
  GI50: > 100 µM (inactive)
SR
  GI50: > 100 µM (inactive)
SW-620
  GI50: > 100 µM (inactive)
T47D
  GI50: > 100 µM (inactive)
TK-10
  GI50: > 100 µM (inactive)
U-251
  GI50: > 100 µM (inactive)
UACC-257
  GI50: > 100 µM (inactive)
UACC-62
  GI50: > 100 µM (inactive)
UO-31
  GI50: > 100 µM (inactive)

Reference: ChEMBL document CHEMBL1201862, “PubChem BioAssay data set” (2004)
